This passage reports Ki and inhibition results from patent US6635641B2 (Agouron Pharmaceuticals, Inc., priority 2000, dated 2003).

Common to all, as to type: biochemical
In experiment [1] the target is T1, unphosphorylated VEGF-R2Δ50 (FLVK) (Homo sapiens, UniProt P35968, DEL940-989/E990V).
T1 construct: VEGF-R2Δ50 contains residues 806-939 and 990-1171; made in house; host or cells: baculovirus/insect cells
Kind of experiment: VEGF-R2 coupled spectrophotometric assay, unphosphorylated construct (FLVK).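 Note: Baculovirus-expressed cytosolic kinase domain, ADP formation linked via pyruvate kinase and lactate dehydrogenase to NADH oxidation, read as falling absorbance at 340 nm.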

The target of experiment [2] is T2, FGF-R1 intracellular kinase domain (Homo sapiens, UniProt P11362, C488A/C584S/L457V).
T2 construct: starting from the endogenous methionine residue 456 to glutamate 766; made in house; host or cells: baculovirus expression system
T2 sequence (P11362 456-766 L457V/C488A/C584S): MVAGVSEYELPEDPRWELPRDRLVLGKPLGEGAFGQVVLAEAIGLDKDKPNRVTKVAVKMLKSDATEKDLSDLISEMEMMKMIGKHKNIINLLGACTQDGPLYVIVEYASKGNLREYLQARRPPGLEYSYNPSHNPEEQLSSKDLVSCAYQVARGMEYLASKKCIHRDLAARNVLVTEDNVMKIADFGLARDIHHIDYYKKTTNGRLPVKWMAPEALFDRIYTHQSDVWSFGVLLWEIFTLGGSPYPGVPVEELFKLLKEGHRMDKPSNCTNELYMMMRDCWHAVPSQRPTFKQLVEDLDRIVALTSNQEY
The experiment is described as follows: FGF-R spectrophotometric assay.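 For all read-outs here: coupled PK/LDH enzyme assay: ADP from kinase phosphoryl transfer drives NADH oxidation, read as absorbance decrease at 340 nm, with 2 mM ATP and poly(E4Y1) substrate.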 To be noted: for Ki: read-out: FGF-P Ki.
Source text: The intracellular kinase domain of human FGF-R1 was expressed using the baculovirus vector expression system starting from the endogenous methionine residue 456 to glutamate 766, according to the residue numbering system of Mohammadi et al., Mol. Cell.
The production of ADP from ATP that accompanies phosphoryl transfer was coupled to oxidation of NADH using phosphoenolpyruvate (PEP) and a system having pyruvate kinase (PK) and lactic dehydrogenase (LDH). The oxidation of NADH was monitored by following the decrease of absorbance at 340 nm (e340=6.22 cm^−1 mM^−1) using a Beckman DU 650 spectrophotometer. […] Assays were initiated with 5 to 40 nM of enzyme. Ki values were determined by measuring enzyme activity in the presence of varying concentrations of test compounds. The data were analyzed using Enzyme Kinetic and Kaleidagraph software.
The spectrophotometric assay was carried out as described above for VEGF-R2, except for the following changes in concentration: FGF-R=50 nM, ATP=2 mM, and poly(E4Y1)=15 mM.

The target of the next experiment is T3, FL-CHK-1 (Homo sapiens, UniProt O14757).
T3 construct: C-terminally His-tagged full-length human CHK-1 (FL-CHK-1); made in house; host or cells: baculovirus/insect cells
T3 sequence (O14757 1-476): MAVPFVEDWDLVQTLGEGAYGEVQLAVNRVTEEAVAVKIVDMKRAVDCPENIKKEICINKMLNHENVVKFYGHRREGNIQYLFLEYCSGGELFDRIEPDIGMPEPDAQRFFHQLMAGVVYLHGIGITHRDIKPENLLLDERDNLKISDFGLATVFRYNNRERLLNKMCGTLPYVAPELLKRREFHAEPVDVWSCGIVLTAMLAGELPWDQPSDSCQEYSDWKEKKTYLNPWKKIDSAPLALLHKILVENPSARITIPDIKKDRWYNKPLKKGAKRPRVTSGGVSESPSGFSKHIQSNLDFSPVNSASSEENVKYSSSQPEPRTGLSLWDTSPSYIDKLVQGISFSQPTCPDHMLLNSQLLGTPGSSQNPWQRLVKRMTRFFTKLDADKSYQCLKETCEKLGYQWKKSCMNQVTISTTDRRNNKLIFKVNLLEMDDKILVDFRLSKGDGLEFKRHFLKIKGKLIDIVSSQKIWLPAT
Kind of experiment: CHK-1 coupled spectrophotometric assay (Syntide-2). To be noted: @ 1 μM; read-out: CHK-1 percent inhibition. An excerpt: C-terminally His-tagged full-length human CHK-1 (FL-CHK-1) was expressed using the baculovirus/insect cell system. It contains 6 histidine residues (6×His-tag) at the C-terminus of the 476 amino acid human CHK-1. The protein was purified by conventional chromatographic techniques.
The production of ADP from ATP that accompanies phosphoryl transfer to the synthetic substrate peptide Syntide-2 ([…]) was coupled to oxidation of NADH using phosphoenolpyruvate (PEP) through the actions of pyruvate kinase (PK) and lactic dehydrogenase (LDH). The oxidation of NADH was monitored by following the decrease of absorbance at 340 nm (ε340=6.22 cm−1 mM^−1) using a HP8452 spectrophotometer. Typical reaction solutions contained: […]; 0.15 mM NADH; 28 units of LDH/ml; 16 units of PK/ml; 3 mM DTT; 0.125 mM Syntide-2; 0.15 mM ATP; 25 mM MgCl2 in 50 mM TRIS, pH 7.5; and 400 mM NaCl. Assays were initiated with 10 nM of FL-CHK-1. Ki values were determined by measuring initial enzyme activity in the presence of varying concentrations of test compounds. The data were analyzed using Enzyme Kinetic and Kaleidagraph software.

For another experiment, the target named is CDK2/Cyclin A complex (Homo sapiens, UniProt P24941). Kind of experiment: CDK2/Cyclin A assay ([32P]ATP incorporation into Rb fragment). The settings on record: read-out: CDK2 percent inhibition. Here is the method:
CDK2 was purified using published methodology (Rosenblatt et al., J. Mol. Biol., 230, 1317-1319 (1993)) from insect cells that had been infected with a baculovirus expression vector. Cyclin A was purified from E. coli cells expressing full-length recombinant cyclin A, and a truncated cyclin A construct was generated by limited proteolysis and purified as described previously (Jeffrey et al., Nature, 376, 313-320 (1995)).
Cyclin-dependent kinase activity was measured by quantifying the enzyme-catalyzed, time-dependent incorporation of radioactive phosphate from [^32P]ATP into a recombinant fragment of the retinoblastoma protein. Unless noted otherwise, assays were performed in 96-well plates in a total volume of 50 μL, in the presence of 10 mM HEPES (N-[2-hydroxyethyl]piperazine-N′-[2-ethanesulfonic acid]) (pH 7.4), 10 mM MgCl2, 25 μM adenosine triphosphate (ATP), 1 mg/mL ovalbumin, 5 μg/mL leupeptin, 1 mM dithiothreitol, 10 mM β-glycerophosphate, 0.1 mM sodium vanadate, 1 mM sodium fluoride, 2.5 mM ethylene glycol-bis(β-aminoethyl ether)-N,N,N′N′-tetraacetic acid (EGTA), 2% (v/v) dimethylsulfoxide, and 0.03-0.2 μCi [^32P]ATP. The substrate (0.3-0.5 μg) was purified recombinant retinoblastoma protein fragment (Rb) (residues 386-928 of the native retinoblastoma protein; 62.3 kDa, containing the majority of the phosphorylation sites found in the native 106-kDa protein, as well as a tag of six histidine residues for ease of purification). Reactions were initiated with CDK2 (150 nM CDK2/Cyclin A complex) or CDK4 (50 nM CDK4/Cyclin D3 complex), incubated at 30° C., and terminated after 20 minutes by the addition of ethylenediaminetetraacetic acid (EDTA) to 250 mM. The phosphorylated substrate was then captured on a nitrocellulose membrane using a 96-well filtration manifold, and unincorporated radioactivity was removed by repeated washing with 0.85% phosphoric acid. Radioactivity was quantified by exposing the dried nitrocellulose membranes to a phosphorimager. Apparent Ki values were measured by assaying enzyme activity in the presence of different compound concentrations and subtracting the background radioactivity measured in the absence of enzyme. The kinetic parameters (kcat, Km for ATP) were measured for each enzyme under the usual assay conditions by determining the dependence of initial rates on ATP concentration. The data were fit to an equation for competitive inhibition using Kaleidagraph (Synergy Software), or were fit to an equation for competitive tight-binding inhibition using the software KineTic (BioKin, Ltd.). Measured Ki values for known inhibitors against CDK4 and CDK2 agreed with published IC50 values. […]

The target of a further experiment is T4, CDK4/Cyclin D3 complex (Homo sapiens, UniProt P11802).
T4 construct: made in house; host or cells: insect cells co-infected with baculovirus vectors
T4 sequence (P11802 whole entry): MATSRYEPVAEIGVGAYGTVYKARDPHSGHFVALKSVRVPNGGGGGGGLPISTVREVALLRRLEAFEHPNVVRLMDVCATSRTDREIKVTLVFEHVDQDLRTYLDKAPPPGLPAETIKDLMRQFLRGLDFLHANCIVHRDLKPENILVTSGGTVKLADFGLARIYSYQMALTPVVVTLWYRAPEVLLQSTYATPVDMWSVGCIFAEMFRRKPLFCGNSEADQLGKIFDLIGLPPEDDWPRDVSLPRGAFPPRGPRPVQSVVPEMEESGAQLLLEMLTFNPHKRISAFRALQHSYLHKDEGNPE
T4 sequence (P30281 whole entry partner): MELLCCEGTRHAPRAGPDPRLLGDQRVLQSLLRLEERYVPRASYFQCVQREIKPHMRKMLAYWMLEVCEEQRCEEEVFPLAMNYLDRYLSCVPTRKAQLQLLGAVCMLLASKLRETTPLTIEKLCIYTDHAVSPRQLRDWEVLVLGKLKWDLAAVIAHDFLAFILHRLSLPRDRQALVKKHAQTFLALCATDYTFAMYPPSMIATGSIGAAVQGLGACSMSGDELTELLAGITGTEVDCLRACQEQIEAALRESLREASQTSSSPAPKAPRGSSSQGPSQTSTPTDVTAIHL
Kind of experiment: CDK4/Cyclin D assay ([32P]ATP incorporation into Rb fragment). The settings on record: read-out: CDK4 percent inhibition. On the procedure:
A complex of human CDK4 and cyclin D3, or a complex of cyclin D1 and a fusion protein of human CDK4 and glutathione-S-transferase (GST-CDK4), was purified using traditional biochemical chromatographic techniques from insect cells that had been co-infected with the corresponding baculovirus expression vectors.
Cyclin-dependent kinase activity was measured by quantifying the enzyme-catalyzed, time-dependent incorporation of radioactive phosphate from [^32P]ATP into a recombinant fragment of the retinoblastoma protein. Unless noted otherwise, assays were performed in 96-well plates in a total volume of 50 μL, in the presence of 10 mM HEPES (N-[2-hydroxyethyl]piperazine-N′-[2-ethanesulfonic acid]) (pH 7.4), 10 mM MgCl2, 25 μM adenosine triphosphate (ATP), 1 mg/mL ovalbumin, 5 μg/mL leupeptin, 1 mM dithiothreitol, 10 mM β-glycerophosphate, 0.1 mM sodium vanadate, 1 mM sodium fluoride, 2.5 mM ethylene glycol-bis(β-aminoethyl ether)-N,N,N′N′-tetraacetic acid (EGTA), 2% (v/v) dimethylsulfoxide, and 0.03-0.2 μCi [^32P]ATP. The substrate (0.3-0.5 μg) was purified recombinant retinoblastoma protein fragment (Rb) (residues 386-928 of the native retinoblastoma protein; 62.3 kDa, containing the majority of the phosphorylation sites found in the native 106-kDa protein, as well as a tag of six histidine residues for ease of purification). Reactions were initiated with CDK2 (150 nM CDK2/Cyclin A complex) or CDK4 (50 nM CDK4/Cyclin D3 complex), incubated at 30° C., and terminated after 20 minutes by the addition of ethylenediaminetetraacetic acid (EDTA) to 250 mM. The phosphorylated substrate was then captured on a nitrocellulose membrane using a 96-well filtration manifold, and unincorporated radioactivity was removed by repeated washing with 0.85% phosphoric acid. Radioactivity was quantified by exposing the dried nitrocellulose membranes to a phosphorimager. Apparent Ki values were measured by assaying enzyme activity in the presence of different compound concentrations and subtracting the background radioactivity measured in the absence of enzyme. The kinetic parameters (kcat, Km for ATP) were measured for each enzyme under the usual assay conditions by determining the dependence of initial rates on ATP concentration. The data were fit to an equation for competitive inhibition using Kaleidagraph (Synergy Software), or were fit to an equation for competitive tight-binding inhibition using the software KineTic (BioKin, Ltd.). Measured Ki values for known inhibitors against CDK4 and CDK2 agreed with published IC50 values. The specific activity of CDK4 was the same whether complexed to full-length cyclin D3 or the truncated Cyclin D3 construct; both complexes also yielded very similar Ki values for selected inhibitors.

For orientation: Ki means a dissociation constant, usually derived from enzyme kinetics or from competition with a known ligand. As usually defined, the inhibition is the drop in the measured response relative to a control, in per cent.

T1 sequence (P35968 with tags, fused parts or gaps DEL940-989/E990V limits assumed): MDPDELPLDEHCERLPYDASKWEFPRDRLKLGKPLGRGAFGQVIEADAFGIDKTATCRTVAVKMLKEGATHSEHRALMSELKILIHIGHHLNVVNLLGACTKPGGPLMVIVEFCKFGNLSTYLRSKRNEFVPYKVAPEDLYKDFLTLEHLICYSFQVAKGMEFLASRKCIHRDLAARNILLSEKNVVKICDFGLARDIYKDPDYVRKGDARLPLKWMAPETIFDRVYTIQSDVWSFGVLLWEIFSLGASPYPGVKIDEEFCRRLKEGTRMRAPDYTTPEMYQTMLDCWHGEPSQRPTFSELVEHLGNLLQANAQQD

Molecule `CC(=O)Nc1ccc(COc2cccc(C(=O)Nc3ccc4nc(C)ccc4c3)c2)cn1` [Example N-1, 3-(6-Acetylaminopyridin-3-yl)methoxy-N-(2-methyl-quinolin-6-yl)-benzamide] returned a Ki in experiment [1] of 1.3 nM. In addition, the inhibition at 1 µM in experiment [2] (@ 1 μM, read-out: FGF-P percent inhibition) is 12%; on FL-CHK-1, 10%; on CDK2/Cyclin A complex, 18%; on CDK4/Cyclin D3 complex, 19%.

In the case of `Cc1cc(NC(=O)c2ccc(F)c(OCc3cncc4ccccc34)c2)ccc1C(C)C` [Example K-10, N-(4-Isopropyl-3-methyl-phenyl)-4-fluoro-3-(Isoquinolin-4-yl)methoxy-benzamide], the results for the inhibitory constant (Ki) in experiment [1] and in experiment [2] were 0.23 nM and 26 nM, respectively. Further, the values for the inhibition at 1 µM at FL-CHK-1, on CDK2/Cyclin A complex and on CDK4/Cyclin D3 complex were 8%, 12% and 17%, respectively.

`Cc1ccc2cc(NC(=O)c3cccc(SCc4cc(Nc5ccccc5)n[nH]4)c3)ccc2n1` [Example E-1, N-(2-methyl-quinolin-6-yl)-3-[{5-(phenylamino)-2-H-pyrazol-3-yl}methylsulfanyl]benzamide] came in with an inhibition constant (Ki) in experiment [1] of 1.4 nM. In experiment [2] (at 5 μM, read-out: FGF-P percent inhibition), the inhibition at 5 µM was 36%. Moreover, the inhibition at 100 µM at CDK2/Cyclin A complex (@ 100 μM) was 23%; at CDK4/Cyclin D3 complex (@ 100 μM) it was 40%.

`O=C(Nc1ccc(N2CCCC2)c(C(F)(F)F)c1)c1cccc(CCc2cc(Nc3cccnc3)n[nH]2)c1` [Example G-11]: the values for the Ki in experiment [1] and in experiment [2] were 0.11 nM and 19 nM, respectively. Moreover, the inhibition at 1 µM at FL-CHK-1 worked out at 7%; at CDK4/Cyclin D3 complex it was 16%.
